From patent publication US11104661B1, “Inhibiting human integrin (α-4) (β-7)” (Morphic Therapeutic, Inc., priority 2019, dated 2021)

Each compound was assayed against T1, α4β7 (Homo sapiens, UniProt P13612+P26010) (assay: Cell-based MAdCAM-1 ligand binding assay (LBA) on RPMI 8866 cells (Example 6)). Conditions: MAdCAM-1-Fc Dylight 650, 3 mM manganese chloride, flow cytometry, Table 3, read-out: LB Assay (Example 6).
T1 construct: endogenous in cells; host or cells: RPMI 8866 cells
T1 sequence (P13612 34-1032): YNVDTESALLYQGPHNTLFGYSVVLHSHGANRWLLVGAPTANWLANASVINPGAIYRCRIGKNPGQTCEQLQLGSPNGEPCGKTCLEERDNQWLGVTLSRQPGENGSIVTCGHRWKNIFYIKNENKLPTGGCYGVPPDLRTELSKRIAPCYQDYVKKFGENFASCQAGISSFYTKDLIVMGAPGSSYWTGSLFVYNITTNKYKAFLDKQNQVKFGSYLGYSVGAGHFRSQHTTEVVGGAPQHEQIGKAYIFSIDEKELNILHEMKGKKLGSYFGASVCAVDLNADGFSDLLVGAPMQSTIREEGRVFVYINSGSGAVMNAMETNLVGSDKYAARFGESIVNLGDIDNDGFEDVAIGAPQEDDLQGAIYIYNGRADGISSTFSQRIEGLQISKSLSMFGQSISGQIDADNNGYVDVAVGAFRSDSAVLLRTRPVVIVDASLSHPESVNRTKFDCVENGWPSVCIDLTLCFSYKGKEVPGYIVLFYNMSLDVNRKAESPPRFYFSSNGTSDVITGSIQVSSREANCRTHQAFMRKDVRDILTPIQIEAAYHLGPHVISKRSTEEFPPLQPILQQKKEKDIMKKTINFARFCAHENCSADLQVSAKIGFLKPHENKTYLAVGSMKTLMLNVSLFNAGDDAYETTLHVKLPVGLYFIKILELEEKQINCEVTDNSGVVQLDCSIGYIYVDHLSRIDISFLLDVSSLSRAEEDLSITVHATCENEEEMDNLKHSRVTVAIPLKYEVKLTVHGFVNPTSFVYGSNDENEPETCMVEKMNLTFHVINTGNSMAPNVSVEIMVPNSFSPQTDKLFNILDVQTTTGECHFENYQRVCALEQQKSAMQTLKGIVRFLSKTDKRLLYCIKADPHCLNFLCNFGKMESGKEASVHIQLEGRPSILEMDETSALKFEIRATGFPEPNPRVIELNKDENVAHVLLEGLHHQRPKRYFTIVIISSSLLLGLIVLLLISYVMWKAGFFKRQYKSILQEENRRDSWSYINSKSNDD
T1 sequence (P26010 20-798): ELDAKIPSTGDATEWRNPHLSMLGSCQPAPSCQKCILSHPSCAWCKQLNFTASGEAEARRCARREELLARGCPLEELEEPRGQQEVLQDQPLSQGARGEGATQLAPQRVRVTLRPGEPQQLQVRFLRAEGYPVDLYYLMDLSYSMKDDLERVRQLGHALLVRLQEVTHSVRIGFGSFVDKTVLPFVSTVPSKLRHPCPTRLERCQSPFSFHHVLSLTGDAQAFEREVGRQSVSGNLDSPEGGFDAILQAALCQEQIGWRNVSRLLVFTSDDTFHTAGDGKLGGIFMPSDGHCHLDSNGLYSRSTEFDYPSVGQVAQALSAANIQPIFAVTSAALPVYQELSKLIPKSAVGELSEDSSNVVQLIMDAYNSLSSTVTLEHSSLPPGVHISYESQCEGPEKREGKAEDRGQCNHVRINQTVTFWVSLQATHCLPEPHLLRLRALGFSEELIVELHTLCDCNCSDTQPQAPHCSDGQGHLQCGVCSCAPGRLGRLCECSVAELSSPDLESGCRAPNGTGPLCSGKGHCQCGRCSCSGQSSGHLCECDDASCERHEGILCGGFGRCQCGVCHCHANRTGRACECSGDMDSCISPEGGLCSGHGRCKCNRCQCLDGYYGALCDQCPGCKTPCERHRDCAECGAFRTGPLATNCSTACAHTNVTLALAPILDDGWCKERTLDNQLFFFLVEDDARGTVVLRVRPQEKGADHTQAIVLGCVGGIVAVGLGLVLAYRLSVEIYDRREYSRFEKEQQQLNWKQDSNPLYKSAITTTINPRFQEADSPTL
Description: Compounds of Formula (I) were further evaluated using a Ligand binding assay (LBA) to examine compound potency of free ligand binding to receptors expressed on cells. The MAdCAM ligand binding assay uses flow cytometry to measure the binding of fluorescently-labeled MAdCAM-1-Fc to RPMI 8866 cells in the presence of Mn++. This assay assesses the binding of compounds to native full-length receptors on the cell surface. […] Ligand binding assays (LBA) are used to examine compound potency and selectivity of free ligand binding to receptors expressed on cells.
Three in vitro assays were used to examine the α4β7 mechanistic process used by cells: 1) ligand:receptor affinity, 2) the avidity of those interactions on a cell's surface, and 3) how those interactions fare under an imposing force. In Example 5, a Fluorescence Polarization (FP) assay is used to measure compound activity through binding competition with the fluorescein-labeled peptide. In Example 6, the potency of compounds against α4β7 is measured in the cell-based ligand binding assay (LBA), using RPMI 8866 cells incubated with the compound samples in competition with soluble MAdCAM-1 ligand. In Example 7, activity of compounds is evaluated in a cell adhesion assay that mechanistically tests what occurs in vivo when trafficking cells utilize α4β7 to adhere to MAdCAM-1 expressing HEVs of the gut during the extravasation process. In the cell adhesion assay of Example 7, a MAdCAMI1-(Fc) is coated on plastic, and α4β7 expressing cells (RPMI-8866) are allowed to adhere to the coated surface in the presence of the test compounds. Next, the force of washing with buffer is applied to cells thereby testing the strength of that adhesion. Unattached cells are removed and the remaining adherent cells are quantified.
5 ul of 33 nM MAdCAM-1-Fc fluorescently labeled with Dylight 650 in 50 mM HEPES pH 7.3, 150 mM sodium chloride, and 1% bovine serum albumin was added to the cells. The samples were incubated for 45 minutes at room temperature, fixed with 0.8% formaldehyde for 30 minutes at room temperature, and washed with 50 mM Tris pH 7.5, 150 mM NaCl, 1 mM EDTA, and 1% bovine serum albumin. Fluorescence intensity for each cell was measured via flow cytometry. Dead cells were excluded from further analysis based on staining with the 780 fixable viability dye. Median fluorescence intensity for Dylight 650 was determined for each sample and concentration-response curves were analyzed for IC50 values using 4-parameter non-linear regression analysis.

IC50 [µM] | Compound
< 0.01 | COc1ccc(C)c(-c2cc(C)c(F)c([C@H](CC(=O)O)NC(=O)C(CC(C)C)n3cc(CCN4CCC4)c(C(F)(F)F)cc3=O)c2)c1C (single isomer, unassigned) [AG-P2]
< 0.01 | Cc1cc(-c2c(C)cccc2C)cc([C@H](CC(=O)O)NC(=O)C(CC(C)C)n2cc(CCN3CC[C@@H](F)C3)cc(F)c2=O)c1F (single isomer, unassigned) [AU-P2]
< 0.01 | Cc1cc(-c2c(C)ccc(F)c2C)cc([C@H](CC(=O)O)NC(=O)C(CC(C)C)n2cc(CCN3CCC3)c(C(F)(F)F)cc2=O)c1F (single isomer, unassigned) [AF-P2]

Same assay, conditions: MAdCAM-1-Fc Dylight 650, 3 mM manganese chloride, flow cytometry, Table 4 comparative compounds, read-out: LB Assay (Example 6)

Compound | IC50 [µM]
Cc1cccc(C)c1-c1cccc([C@H](CC(=O)O)NC(=O)[C@H](CC(C)C)n2cc(CN3CC(F)C3)ccc2=O)c1 [drawing 589] | < 0.01
Cc1cccc(C)c1-c1cccc([C@H](CC(=O)O)NC(=O)[C@H](CC(C)C)n2cc(CN3CC(F)C3)ccc2=O)c1 [drawing 577] | < 0.01
Cc1cccc(C)c1-c1cncc([C@H](CC(=O)O)NC(=O)[C@H](CC(C)C)n2ccc(C(F)(F)F)cc2=O)c1 | < 0.01
Cc1cccc(C)c1-c1cccc([C@H](CC(=O)O)NC(=O)[C@H](CC(C)C)n2cc(CN3CC(F)C3)ccc2=O)c1 [drawing 572] | < 0.01
Cc1cccc(C)c1-c1cncc([C@H](CC(=O)O)NC(=O)[C@H](CC(C)C)N2CC[C@@H](C(F)(F)F)CC2=O)c1 | 0.01 to 0.5
CC(C)C[C@@H](C(=O)N[C@@H](CC(=O)O)c1ccc(-c2ccccc2)cc1)n1cc(CCN2CC(F)C2)cc(F)c1=O | 0.01 to 0.5
Cc1cccc(C)c1-c1cccc([C@H](CC(=O)O)NC(=O)[C@H](CC(C)C)n2cc(CN3CC[C@@H](F)C3)ccc2=O)c1 | < 0.01
Cc1ccn([C@@H](CC(C)C)C(=O)N[C@@H](CC(=O)O)c2cncc(-c3c(C)cccc3C)c2)c(=O)c1 | < 0.01
CC(C)C[C@@H](C(=O)N[C@@H](CC(=O)O)c1ccc(-c2ccc(F)cc2)cc1)n1cc(CCN2CC(F)C2)cc(F)c1=O | 0.01 to 0.5
COC[C@@H](C(=O)N[C@@H](CC(=O)O)c1cccc(-c2c(C)cccc2C)c1)n1ccc(C)cc1=O | 0.01 to 0.5
CC(C)C[C@@H](C(=O)N[C@@H](CC(=O)O)c1ccc(-c2ccccc2)cc1)n1cc(CCN(C)C)c(C(F)(F)F)cc1=O | 0.01 to 0.5
Cc1ccc([C@@H](C(=O)N[C@@H](CC(=O)O)c2cncc(-c3c(C)cccc3C)c2)N2CC(C)CCC2=O)cc1 (stereo partly shown) | 0.01 to 0.5
Cc1cccc(C)c1-c1cncc([C@H](CC(=O)O)NC(=O)[C@H](CC(C)C)n2cc(CN3CC(F)C3)ccc2=O)c1 | < 0.01
CC(C)C[C@@H](C(=O)N[C@@H](CC(=O)O)c1ccc(-c2ccc(F)cc2)cc1)n1cc(CCN(C)C)c(C(F)(F)F)cc1=O | 0.01 to 0.5

Now from value to compound:

IC50 [µM] | Compound
0.01 to 0.5 | Cc1ccccc1-c1cccc([C@H](CC(=O)O)NC(=O)[C@H](CC(C)C)n2cccc(C)c2=O)c1
0.01 to 0.5 | Cc1cccc(C)c1-c1cccc([C@H](CC(=O)O)NC(=O)[C@H](CC(C)C)n2cccc(CCN(C)C)c2=O)c1
< 0.01 | Cc1cccc(C)c1-c1cccc([C@H](CC(=O)O)NC(=O)[C@H](CC(C)C)n2ccc(CCN(C)C)cc2=O)c1
< 0.01 | Cc1cccc(C)c1-c1cccc([C@H](CC(=O)O)NC(=O)[C@H](CC(C)C)n2cc(CN3CC(F)C3)ccc2=O)c1 [drawing 604]
< 0.01 | Cc1cccc(C)c1-c1cccc([C@H](CC(=O)O)NC(=O)[C@H](CC(C)C)n2cc(CCN(C)C)ccc2=O)c1
< 0.01 | Cc1cccc(C)c1-c1cccc([C@H](CC(=O)O)NC(=O)[C@H](CC(C)C)n2cc(CN3CC(F)C3)ccc2=O)c1 [drawing 594]
< 0.01 | Cc1cccc(C)c1-c1cccc([C@H](CC(=O)O)NC(=O)[C@H](CC(C)C)n2cc(CN3CC(F)C3)ccc2=O)c1 [drawing 599]
< 0.01 | Cc1cccc(C)c1-c1cccc([C@H](CC(=O)O)NC(=O)[C@H](CC(C)C)n2cc(CN3CC(F)C3)ccc2=O)c1 [drawing 585]
